Patent publication US20260028365A1 (BIOGEN MA INC., priority 2022, published 2026)
Where a name gives a salt, the structure may show the parent alone. Read-outs that look alike come from different tables or passages of the source.

Key:
JH2 domain of human Tyk2 = JH2 domain of human Tyk2 (Homo sapiens (Human), UniProt P29597); assay: JH2 Biochemical Assay (TR-FRET probe displacement); type: binding
Tyk2 = Tyk2 (Homo sapiens (Human), UniProt P29597); assay: pSTAT4 Cell Assay (MSD, NK92 cells); type: cell-based
Chain of Tyk2 (P29597 whole entry, the tested form may be a part): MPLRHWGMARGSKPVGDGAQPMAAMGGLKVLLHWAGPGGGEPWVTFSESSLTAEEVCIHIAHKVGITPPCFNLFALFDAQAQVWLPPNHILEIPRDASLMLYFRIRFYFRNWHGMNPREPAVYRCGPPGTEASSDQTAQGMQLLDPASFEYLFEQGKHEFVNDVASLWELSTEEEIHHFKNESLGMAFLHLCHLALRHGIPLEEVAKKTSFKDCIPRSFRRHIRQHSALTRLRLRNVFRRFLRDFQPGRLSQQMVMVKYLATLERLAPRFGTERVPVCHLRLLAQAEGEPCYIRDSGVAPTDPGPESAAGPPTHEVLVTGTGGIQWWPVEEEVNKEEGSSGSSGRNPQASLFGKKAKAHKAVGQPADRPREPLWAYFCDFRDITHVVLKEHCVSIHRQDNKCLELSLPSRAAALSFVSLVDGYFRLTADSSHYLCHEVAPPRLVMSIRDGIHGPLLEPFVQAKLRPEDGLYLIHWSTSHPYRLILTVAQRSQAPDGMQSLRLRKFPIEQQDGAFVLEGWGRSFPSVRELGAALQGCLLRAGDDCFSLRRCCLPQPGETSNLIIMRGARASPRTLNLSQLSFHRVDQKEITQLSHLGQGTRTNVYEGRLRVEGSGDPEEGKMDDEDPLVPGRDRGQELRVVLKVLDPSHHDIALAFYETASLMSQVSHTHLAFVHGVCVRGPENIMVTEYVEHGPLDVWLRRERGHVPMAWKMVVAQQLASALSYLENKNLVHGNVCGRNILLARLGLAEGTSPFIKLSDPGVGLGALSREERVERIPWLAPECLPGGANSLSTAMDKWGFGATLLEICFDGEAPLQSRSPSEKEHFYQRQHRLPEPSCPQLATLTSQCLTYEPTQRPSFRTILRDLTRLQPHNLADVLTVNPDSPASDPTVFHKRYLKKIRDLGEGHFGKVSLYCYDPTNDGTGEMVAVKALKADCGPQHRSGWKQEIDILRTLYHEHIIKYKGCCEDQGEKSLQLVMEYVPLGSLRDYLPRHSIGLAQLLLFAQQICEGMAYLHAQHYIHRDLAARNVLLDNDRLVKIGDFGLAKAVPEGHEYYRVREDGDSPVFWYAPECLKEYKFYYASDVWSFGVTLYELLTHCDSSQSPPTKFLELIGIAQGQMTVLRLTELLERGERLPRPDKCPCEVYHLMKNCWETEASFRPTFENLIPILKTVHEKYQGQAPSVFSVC

[1] = JH2 domain of human Tyk2, TR-FRET probe displacement
[2] = TR-FRET probe displacement, JH2 domain of human Tyk2
[3] = TR-FRET probe displacement, JH2 domain

Chain of JH2 domain of human Tyk2 (P29597 575-876): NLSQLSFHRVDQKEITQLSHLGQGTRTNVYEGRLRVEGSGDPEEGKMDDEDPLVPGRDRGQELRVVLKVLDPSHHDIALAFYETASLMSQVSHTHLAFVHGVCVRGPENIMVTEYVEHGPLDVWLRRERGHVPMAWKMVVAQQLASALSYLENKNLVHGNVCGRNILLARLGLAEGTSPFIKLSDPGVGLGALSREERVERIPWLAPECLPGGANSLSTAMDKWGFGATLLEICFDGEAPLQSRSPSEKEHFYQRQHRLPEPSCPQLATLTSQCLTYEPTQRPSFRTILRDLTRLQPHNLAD

| Structure (SMILES) | IC50 (JH2 domain of human Tyk2; [1]) [nM] | IC50 (Tyk2; MSD) [nM] | IC50 (JH2 domain of human Tyk2; [2]) [nM] | IC50 (JH2 domain of human Tyk2; [3]) [nM] | IC50 (Tyk2) [nM] |
| --- | --- | --- | --- | --- | --- |
| COc1cnc(NC(C)=O)cc1Nc1cc(OC2CC(F)(F)C2)nc(C(C)(F)F)n1 [Example 460, N-(4-((6-(3,3-difluorocyclobutoxy)-2-(1,1-difluoroethyl)pyrimidin-4-yl)amino)-5-methoxypyridin-2-yl)acetamide] | ≤ 10 | 10 to 100 |  |  |  |
| CCOc1cnc(NC(C)=O)cc1Nc1cc(-c2cnn(CCN(C)C)c2)nc(C(C)(F)F)n1 [Example 308, N-(4-((2-(1,1-difluoroethyl)-6-(1-(2-(dimethylamino)ethyl)-1H-pyrazol-4-yl)pyrimidin-4-yl)amino)-5-ethoxypyridin-2-yl)acetamide] |  | 10 to 100 | ≤ 10 |  |  |
| CC(=O)Nc1cc(Nc2cc(C)nc(C(C)(F)F)n2)c(-c2ccc(C)nn2)cn1 [Example 219, N-(4-((2-(1,1-difluoroethyl)-6-methylpyrimidin-4-yl)amino)-5-(6-methylpyridazin-3-yl)pyridin-2-yl)acetamide] |  | ≤ 10 | ≤ 10 |  |  |
| CCOc1cnc(NC(C)=O)cc1Nc1cc(-c2ccc(CC)nc2)nc(C(C)(F)F)n1 [Example 368, N-(4-((2-(1,1-difluoroethyl)-6-(6-ethylpyridin-3-yl)pyrimidin-4-yl)amino)-5-ethoxypyridin-2-yl)acetamide] |  | ≤ 10 | ≤ 10 |  |  |
| CCc1cc(Nc2cc(NC(C)=O)ncc2-c2nnc(C)s2)nc(C(C)(F)F)n1 [Example 167, N-(4-((2-(1,1-difluoroethyl)-6-ethylpyrimidin-4-yl)amino)-5-(5-methyl-1,3,4-thiadiazol-2-yl)pyridin-2-yl)acetamide] |  | ≤ 10 | ≤ 10 |  |  |
| CC(=O)Nc1cc(Nc2cc(C)nc(C(C)(F)F)n2)c(OCC2COCC(C)(C)O2)cn1 (stereo not drawn) [Example 419, N-(4-((2-(1,1-difluoroethyl)-6-methylpyrimidin-4-yl)amino)-5-((6,6-dimethyl-1,4-dioxan-2-yl)methoxy)pyridin-2-yl)acetamide] | ≤ 10 | ≤ 10 |  |  |  |
| CCCn1ccc(-c2cnc(NC(C)=O)cc2Nc2cc(C)nc(C(C)(F)F)n2)n1 [Example 615, N-(4-((2-(1,1-difluoroethyl)-6-methylpyrimidin-4-yl)amino)-5-(1-propyl-1H-pyrazol-3-yl)pyridin-2-yl)acetamide] | ≤ 10 | ≤ 10 |  |  |  |
| CCOc1cnc(NC(C)=O)cc1Nc1cc(-c2cnn(C(F)F)c2)nc(C(C)(F)F)n1 [Example 303, N-(4-((2-(1,1-difluoroethyl)-6-(1-(difluoromethyl)-1H-pyrazol-4-yl)pyrimidin-4-yl)amino)-5-ethoxypyridin-2-yl)acetamide] |  | 10 to 100 | ≤ 10 |  |  |
| CC(=O)Nc1cc(Nc2cc(C)nc(C(C)(F)F)n2)c(-c2cccc(C3CN(C)CCO3)n2)cn1 (stereo not drawn) [Example 640, N-(4′-((2-(1,1-difluoroethyl)-6-methylpyrimidin-4-yl)amino)-6-(4-methylmorpholin-2-yl)-[2,3′-bipyridin]-6′-yl)acetamide] | ≤ 10 | ≤ 10 |  |  |  |
| CCc1cc(Nc2cc(NC(C)=O)ncc2-c2ccc(N3CCOCC3)nn2)nc(C(C)(F)F)n1 [Example 863, N-(4-((2-(1,1-difluoroethyl)-6-ethylpyrimidin-4-yl)amino)-5-(6-morpholinopyridazin-3-yl)pyridin-2-yl)acetamide] |  |  |  | ≤ 10 | ≤ 10 |
| CC(=O)Nc1cc(Nc2cc(C3CC3)nc(C(C)(F)F)n2)c(-c2ccn(C)n2)cn1 [Example 206, N-(4-((6-cyclopropyl-2-(1,1-difluoroethyl)pyrimidin-4-yl)amino)-5-(1-methyl-1H-pyrazol-3-yl)pyridin-2-yl)acetamide] |  | ≤ 10 | ≤ 10 |  |  |
| CC(=O)Nc1cc(Nc2ccnc(C(C)(F)F)n2)c(-c2ccc3c(n2)OCC(C)(C)O3)cn1 [Example 144, N-(4-((2-(1,1-difluoroethyl)pyrimidin-4-yl)amino)-5-(2,2-dimethyl-2,3-dihydro-[1,4]dioxino[2,3-b]pyridin-6-yl)pyridin-2-yl)acetamide trifluoroacetate] |  | ≤ 10 | ≤ 10 |  |  |
| COCC(C)Oc1cnc(NC(C)=O)cc1Nc1cc(C)nc(C(C)(F)F)n1 (stereo not drawn) [Example 59, N-(4-((2-(1,1-difluoroethyl)-6-methylpyrimidin-4-yl)amino)-5-((1-methoxypropan-2-yl)oxy)pyridin-2-yl)acetamide] |  | 100 to 1000 | ≤ 10 |  |  |
| COc1cnn(-c2cnc(NC(C)=O)cc2Nc2cc(C)nc(C(C)(F)F)n2)c1 [Example 731, N-(4-((2-(1,1-difluoroethyl)-6-methylpyrimidin-4-yl)amino)-5-(4-methoxy-1H-pyrazol-1-yl)pyridin-2-yl)acetamide] | ≤ 10 | 10 to 100 |  |  |  |
| COc1cnc(NC(C)=O)cc1Nc1cc(-c2cn(C)nc2C(F)(F)F)nc(C(C)(F)F)n1 [Example 395, N-(4-((2-(1,1-difluoroethyl)-6-(1-methyl-3-(trifluoromethyl)-1H-pyrazol-4-yl)pyrimidin-4-yl)amino)-5-methoxypyridin-2-yl)acetamide] | ≤ 10 | 100 to 1000 |  |  |  |
| CCc1cc(Nc2cc(NC(C)=O)ncc2F)nc(C(C)(F)F)n1 [Example 816, N-(4-((2-(1,1-difluoroethyl)-6-ethylpyrimidin-4-yl)amino)-5-fluoropyridin-2-yl)acetamide] |  |  |  | ≤ 10 | 100 to 1000 |
| COc1ccc(-c2cnc(NC(C)=O)cc2Nc2cc(C)nc(C(C)(F)F)n2)nc1OC [Example 637, N-(4′-((2-(1,1-difluoroethyl)-6-methylpyrimidin-4-yl)amino)-5,6-dimethoxy-[2,3′-bipyridin]-6′-yl)acetamide] | ≤ 10 | ≤ 10 |  |  |  |
| CCc1cc(Nc2cc(NC(C)=O)ncc2-c2cn(CCOC)nn2)nc(C(C)(F)F)n1 [Example 262, N-(4-((2-(1,1-difluoroethyl)-6-ethylpyrimidin-4-yl)amino)-5-(1-(2-methoxyethyl)-1H-1,2,3-triazol-4-yl)pyridin-2-yl)acetamide] |  | ≤ 10 | ≤ 10 |  |  |
| CC(=O)Nc1cc(Nc2cc(C)nc(C(C)(F)F)n2)c(-c2nc3n(n2)CCN(C)C3)cn1 [Example 759, N-(4-((2-(1,1-difluoroethyl)-6-methylpyrimidin-4-yl)amino)-5-(7-methyl-5,6,7,8-tetrahydro[1,2,4]triazolo[1,5-a]pyrazin-2-yl)pyridin-2-yl)acetamide] |  |  |  | ≤ 10 | 10 to 100 |
| CC(=O)Nc1cc(Nc2cc(C)nc(C(C)(F)F)n2)c(OCC2CC(=O)N(C)C2)cn1 (stereo not drawn) [Example 511, N-(4-((2-(1,1-difluoroethyl)-6-methylpyrimidin-4-yl)amino)-5-((1-methyl-5-oxopyrrolidin-3-yl)methoxy)pyridin-2-yl)acetamide] | 10 to 100 | 100 to 1000 |  |  |  |
| [2H]C([2H])([2H])C([2H])([2H])Oc1cnc(NC(C)=O)cc1Nc1cc(-c2cnn(C(C)C)c2)nc(C(C)(F)F)n1 [Example 361, N-(4-((2-(1,1-difluoroethyl)-6-(1-isopropyl-1H-pyrazol-4-yl)pyrimidin-4-yl)amino)-5-(ethoxy-d5)pyridin-2-yl)acetamide] |  | ≤ 10 | ≤ 10 |  |  |
| COCCOc1cnc(NC(C)=O)cc1Nc1cccc(C2CCOC2)n1 (stereo not drawn) [Example 72, N-(5-(2-methoxyethoxy)-4-((6-(tetrahydrofuran-3-yl)pyridin-2-yl)amino)pyridin-2-yl)acetamide] |  | 100 to 1000 | ≤ 10 |  |  |
| CC(=O)Nc1cc(Nc2ccnc(C(C)(F)F)n2)c(-n2cc(C)cn2)cn1 [Example 728, N-(4-((2-(1,1-difluoroethyl)pyrimidin-4-yl)amino)-5-(4-methyl-1H-pyrazol-1-yl)pyridin-2-yl)acetamide] | ≤ 10 | 10 to 100 |  |  |  |
| CC(=O)Nc1cc(Nc2cc(C)nc(C(C)(F)F)n2)c(-c2nccs2)cn1 [Example 605, N-(4-((2-(1,1-difluoroethyl)-6-methylpyrimidin-4-yl)amino)-5-(thiazol-2-yl)pyridin-2-yl)acetamide] | ≤ 10 | 10 to 100 |  |  |  |
| CCc1cc(Nc2cc(NC(C)=O)ncc2-c2cnc(CN3C[C@@H]4C[C@H]3CO4)cn2)nc(C(C)(F)F)n1 [Example 894, N-(5-(5-(((1S,4S)-2-oxa-5-azabicyclo[2.2.1]heptan-5-yl)methyl)pyrazin-2-yl)-4-((2-(1,1-difluoroethyl)-6-ethylpyrimidin-4-yl)amino)pyridin-2-yl)acetamide] |  |  |  | ≤ 10 | ≤ 10 |
| COc1cnc(NC(C)=O)cc1Nc1cc(-c2cnn(CC(F)(F)F)c2)nc(C(C)(F)F)n1 [Example 381, N-(4-((2-(1,1-difluoroethyl)-6-(1-(2,2,2-trifluoroethyl)-1H-pyrazol-4-yl)pyrimidin-4-yl)amino)-5-methoxypyridin-2-yl)acetamide] | ≤ 10 | 10 to 100 |  |  |  |
| CC(=O)Nc1cc(Nc2ccnc(C(C)(F)F)n2)c(-c2cnc(N3CCC4(COC4)C3)cn2)cn1 [Example 869, N-(5-(5-(2-oxa-6-azaspiro[3.4]octan-6-yl)pyrazin-2-yl)-4-((2-(1,1-difluoroethyl)pyrimidin-4-yl)amino)pyridin-2-yl)acetamide] |  |  |  | 10 to 100 | 100 to 1000 |
| CC(=O)Nc1cc(Nc2cc(C)nc(C(C)(F)F)n2)c(-c2cncc(CN(C)C)n2)cn1 [Example 675, N-(4-((2-(1,1-difluoroethyl)-6-methylpyrimidin-4-yl)amino)-5-(6-((dimethylamino)methyl)pyrazin-2-yl)pyridin-2-yl)acetamide] | ≤ 10 | 100 to 1000 |  |  |  |
| COCCn1cnc(-c2cnc(NC(C)=O)cc2Nc2cc(C)nc(C(C)(F)F)n2)cc1=O [Example 250, N-(4-((2-(1,1-difluoroethyl)-6-methylpyrimidin-4-yl)amino)-5-(1-(2-methoxyethyl)-6-oxo-1,6-dihydropyrimidin-4-yl)pyridin-2-yl)acetamide] |  | 100 to 1000 | ≤ 10 |  |  |
| COCCOc1cnc(NC(C)=O)cc1Nc1cncc(C(F)CF)n1 (stereo not drawn) [Example 89, N-(4-((6-(1,2-difluoroethyl)pyrazin-2-yl)amino)-5-(2-methoxyethoxy)pyridin-2-yl)acetamide] |  | 10 to 100 | 10 to 100 |  |  |
